Results: ChEMBL document CHEMBL1156829 (Proc Natl Acad Sci U S A, 2008)

How the values were obtained:
[1] = NOVARTIS: Cytotoxicity against human hepatocellular carcinoma cell line (Huh7); type: toxicity, cell-based, Huh-7; conditions: Huh7 cells (hepatocellular carcinoma cell line)
Plasmodium falciparum [2] = test: NOVARTIS: Inhibition of Plasmodium falciparum 3D7 (drug-susceptible) proliferation in erythrocyte-based infection assay; type: functional, organism-based
Plasmodium falciparum [3] = test: NOVARTIS: Inhibition of Plasmodium falciparum W2 (drug-resistant) proliferation in erythrocyte-based infection assay; type: functional, organism-based; conditions: Plasmodium falciparum, W2; read-out: EC50

| Compound | CC50 [1] [nM] | EC50 (Plasmodium falciparum [2]; Plasmodium falciparum, 3D7) [nM] | EC50 (Plasmodium falciparum [3]) [nM] | EC50 (Plasmodium falciparum [2]) [nM] |
| --- | --- | --- | --- | --- |
| CCCCN(CCCC)C(=O)Cn1ccc(=N)c2ccccc21 | > 100000 | 3740 | < 0.151 |  |
| CCN(CC)CCCN(Cc1cc2cc(OC)c(OC)cc2[nH]c1=O)C(=S)Nc1cccc(Cl)c1 | 18900 | 698 | 707 |  |
| Cc1cc(/C=C2\SC(=Nc3ccccc3)NC2=O)c(C)n1-c1cccc([N+](=O)[O-])c1 | > 100000 | 682 | 897 |  |
| CCN(CC)CCNc1ncnc2c1[nH]c1ccc(F)cc12 | 31500 | 277 | 169 |  |
| C#CC[N+]1(CC#Cc2cccc3ccccc23)CCCCC1 | > 100000 | 973 | 484 |  |
| COc1ccc(C(=O)N2C(C(=O)NCCC(C)C)CSC2c2ccc(C(C)(C)C)cc2)cc1 (centres undefined) | > 4480 | 797 | 1120 |  |
| c1cc(C2=NCCN2)ccc1OCCCOc1ccc(C2=NCCN2)cc1 | > 10000 | 5.58 | 51.8 |  |
| CCCCCCN(C(=O)c1ccc2ccccc2c1)C(CC)c1nc2ccccc2c(=O)n1-c1ccccc1OC (centres undefined) | > 10000 | 641 | 631 |  |
| CCc1ccc(CSc2nc3cc(OC)c(OC)cc3c(=N)n2CCc2ccccc2)cc1 | 38900 | 6640 | 7620 |  |
| CCOC(=O)C1=C(C)NC2=C(C(=O)CC(c3ccc(OC)c(OC)c3)C2)C1c1ccccc1F (centres undefined) | > 100000 | 27.6 | 26.4 |  |
| CCN1/C(=C/C(=C/c2sc3ccccc3[n+]2CC)NC)Sc2ccccc21 | > 10000 | > 1250 | > 422 |  |
| CN1c2ccccc2N(C)C1c1ccco1 | > 10000 | 288 | 356 |  |
| CC(C(=O)N1CCN(C(c2ccccc2)c2ccccc2)CC1)N(CCN1CCOCC1)S(=O)(=O)c1ccccn1 (centres undefined) | > 10000 | > 819 | 287 |  |
| COC(=O)c1ccccc1NC(=O)COc1cccc(OC)c1 | > 10000 | > 1410 | 1860 |  |
| Cc1ccc(NC(=O)C2C3C=CC4(O3)C2C(=O)N(Cc2cccnc2)C4C(=O)NC2CCCCC2)cc1 (centres undefined) | > 10000 | > 1640 | 682 |  |
| C=CC1CN2CCC1CC2[C@H](O)c1ccnc2ccc(O)cc12 (some centres undefined) | > 100000 | 404 | 5720 |  |
| COc1ccc([N+](=O)[O-])cc1N(CC1CO1)S(=O)(=O)c1ccc(C)cc1 (centres undefined) | > 100000 | > 12500 | 6640 |  |
| c1ccc2[nH]c(CN(Cc3nc4ccccc4[nH]3)Cc3nc4ccccc4[nH]3)nc2c1 | 26700 | 191 | 5260 |  |
| O=C(CN1CCCC1)Nc1ccc(-c2nc3cc(NC(=O)CN4CCCC4)ccc3o2)cc1 | 36200 | 2460 | 1360 |  |
| Cc1cccn2c(NCc3ccccc3)c(-c3ccccc3OC(=O)CCCCl)nc12 | > 10000 | 781 | 253 |  |
| Cc1[nH]c2ccccc2c(=O)c1Br | > 100000 | 532 | 686 |  |
| Cc1sc2ncn(CC(=O)N(C)Cc3ccccc3)c(=O)c2c1S(=O)(=O)N1CCOCC1 | > 10000 | > 1250 | > 770 |  |
| CC1CN(C(=O)C(Cc2c[nH]c3ccccc23)NC(=O)C(c2ccccc2)c2ccccc2)CCN1C(=O)NCc1ccccc1 (centres undefined) | > 10000 | > 1250 | > 391 |  |

| Compound | CC50 [1] [nM] | EC50 (Plasmodium falciparum [2]; Plasmodium falciparum, 3D7) [nM] | EC50 (Plasmodium falciparum [3]) [nM] | EC50 (Plasmodium falciparum [2]) [nM] |
| --- | --- | --- | --- | --- |
| CN1CCN(c2ccc(Nc3c4ccccc4nc4ccccc34)cc2)CC1 | 6760 | 56.7 | 95.5 |  |
| Cc1ccc(Nc2nc(NN=Cc3ccc(-c4ccc([N+](=O)[O-])cc4)o3)nc(Nc3ccccc3)n2)c(C)c1 | > 10000 | > 824 | 387 |  |
| O=C(Cn1c2ccccc2c(=O)c2ccc(Cl)cc21)Nc1cccc(Cl)c1 | > 10000 | 934 | 589 |  |
| CCCCNc1cc(C)nc(NCc2ccccc2)n1 | > 10000 | 944 | 1020 |  |
| COc1cccc(Nc2nc(NCCO)c3ccccc3n2)c1 | 21100 | 115 | 312 |  |
| O=C(Nc1ccc(C2=NCCN2)c(Cl)c1)c1cccc(C(=O)Nc2ccc(C3=NCCN3)c(Cl)c2)c1 | > 10000 | 307 | 103 |  |
| Cc1c(C#N)c2ccccc2n1CC(=O)Nc1ccc(Br)cc1 | 11100 | 771 | 1030 |  |
| O=C(COC(c1cccs1)c1cccnc1Cl)N1CCN(C(=O)Nc2ccccc2)CC1 (centres undefined) | > 100000 | > 12500 | 1420 |  |
| CC1=C(C(=O)Nc2ccc(C)cc2C)C(c2ccc([N+](=O)[O-])cc2)n2ncc(C(=O)Nc3ccc(F)cc3)c2N1 (centres undefined) | > 100000 | 585 | 514 |  |
| COc1cc(OC)cc(C(=O)Oc2ccccc2-c2nc3cc(C)ccn3c2NC(C)(C)CC(C)(C)C)c1 | > 10000 | 946 | 54 |  |
| O=C(NCCc1nc(-c2cccnc2)n[nH]1)C12CC3CC(CC(C3)C1)C2 | > 10000 | > 1250 | 581 |  |
| CN(C)C(=O)CN(C)C(=O)c1cnc2scc(C(C)(C)C)n2c1=O | > 10000 | > 820 | > 1250 |  |
| CCOC(=O)c1cnc2c(C)c3[nH]c(C)c(C)c3cc2c1O | > 10000 | > 1310 | 1070 |  |
| CCn1c(SCCNC(=O)CC(C)C)nc(-c2ccccc2)c1-c1ccccc1 | > 9920 | > 1250 | > 922 |  |
| O=C(c1ccncc1)N1CCN(Cc2ccc3c(c2)OCO3)CC1 | > 10000 | 964 | 176 |  |
| O=C1c2ccccc2-c2nc3ccc(C(F)(F)F)cc3nc21 | > 10000 | 1140 | 1260 |  |
| O=C(c1ccc([N+](=O)[O-])cc1)C1C(C(=O)c2ccc(F)cc2)C2(C(=O)Nc3ccccc32)C2C=Cc3ccccc3N12 (centres undefined) | > 10000 | > 622 | 188 |  |
| CCCCOc1ccc(C(=O)Oc2ccccc2-c2nc3cc(C)ccn3c2NC(C)(C)CC(C)(C)C)cc1 | > 10000 | 804 | 130 |  |
| O=C1C2C3c4ccccc4C(c4ccccc43)C2C(=O)N1CCO (centres undefined) | > 100000 | > 12500 | 3700 |  |
| O=c1c2c3c(sc2ncn1CCCc1ccccc1)CC(N1CCC(N2CCCCC2)CC1)CC3 (centres undefined) | 14800 | 386 | 2020 |  |
| CCCCCc1ccc(C(=O)Oc2ccccc2-c2nc3cc(C)ccn3c2NC(C)(C)CC(C)(C)C)cc1 | > 10000 | 739 | 93.4 |  |
| CCc1nnc2sc(-c3ccc(NC(=O)c4ccc(Br)o4)cc3)nn12 | > 100000 | 5050 | 833 |  |
| O=c1c2ccccc2nc(/C=C/c2ccc([N+](=O)[O-])o2)n1-c1ccc(Br)cc1 | > 10000 | 902 | > 1640 |  |

| Compound | CC50 [1] [nM] | EC50 (Plasmodium falciparum [2]; Plasmodium falciparum, 3D7) [nM] | EC50 (Plasmodium falciparum [3]) [nM] | EC50 (Plasmodium falciparum [2]) [nM] |
| --- | --- | --- | --- | --- |
| COc1ccccc1NC(=O)C(=O)NCCc1ccc(OC)c(OC)c1 | > 100000 | > 10300 | > 10800 |  |
| CC(=O)NCCc1ccc(O)cc1 | > 10000 | > 1670 | < 13.7 |  |
| O=C(NCC1CCCO1)c1cnc(NCCCn2ccnc2)nc1NCCc1ccccc1 (centres undefined) | > 10000 | 1010 | 26.7 |  |
| CC(=O)c1ccc(OCc2cc(C(=O)N3CCCCC3c3cccnc3)no2)cc1 (centres undefined) | > 100000 | 4210 | 1370 |  |
| Cc1cc(C)c(S(=O)(=O)N(C)CCCNc2ccnc3cc(Cl)ccc23)c(C)c1 | 26800 | 167 | 229 |  |
| C=CCN1C=CC(=Cc2sc3ccccc3[n+]2C)c2ccccc21 | > 9370 |  | 125 | 432 |
| Cc1ccc(-c2ccc(C#N)c(OCC(=O)NCCc3ccccc3)n2)c(C)c1 | > 10000 | > 1250 | > 1060 |  |
| Cc1ccc(C)c(CN2C(=O)c3ccccc3S(=O)(=O)c3ccc(C(=O)NCCCN4CCCC(C)C4)cc32)c1 (centres undefined) | 12000 | 1070 | 1750 |  |
| CC(C)N1CCc2c(sc(NC(=O)C(C)(C)C)c2C(N)=O)C1 | 71200 | 1040 | 6260 |  |
| O=C(NC1CC1)c1ccc(CSCc2ccccc2Cl)o1 | > 100000 | 503 | 562 |  |
| CN1CCN(CCCNc2ccnc3cc4ccccc4cc23)CC1 | 5930 | 24.1 | 78.5 |  |
| Fc1ccc2nc(Nc3nc(-c4ccccn4)cs3)sc2c1 | 3040 | 1260 | 216 |  |
| C#CC(C)(C)NS(=O)(=O)c1cc(-c2nnc(Nc3cccc(C)c3)c3ccccc23)ccc1C | > 10000 | 1040 | > 1250 |  |
| CC(C)CC1=Nc2cc(C(=O)NCc3ccccc3)ccc2CN1Cc1cccnc1 | > 10000 | > 1250 | 26.7 |  |
| CC[n+]1c(/C=C/c2ccc(F)cc2)ccc2ccccc21 | > 10000 | 122 | 140 |  |
| CCOC(=O)c1cnc2c(OC)cccc2c1Nc1ccc(OC)c(OC)c1 | > 10000 | 827 | 493 |  |
| CCC(C)(C)C1CCc2c(sc(NC(=O)c3ccc(F)cc3)c2C(N)=O)C1 (centres undefined) | > 10000 | > 1250 | 2340 |  |
| CCOC(=O)C1=C(C)NC2=C(C(=O)CC(c3ccc(Cl)cc3)C2)C1c1ccccc1Cl (centres undefined) | > 100000 | 44.2 | 40.8 |  |
| OC(CNc1cccc2ccccc12)Cn1c2ccc(Cl)cc2c2cc(Cl)ccc21 (centres undefined) | 54200 | 403 | 306 |  |
| COc1cc(/C=C(\C#N)c2nc3ccccc3[nH]2)ccc1OCc1ccc(C)cc1 | > 10000 | 1050 | 1470 |  |
| CCc1nc2ccc(NC(=O)c3ccncc3)cc2c(=O)n1Cc1cccc(OC)c1 | > 570 | 1570 | 427 |  |
| COc1cc(Nc2cncc(-c3ccncc3)n2)cc(OC)c1OC | > 100000 | 1080 | 1420 |  |
